Results taken from ChEMBL document CHEMBL5375960, “Design and Synthesis of Novel Cereblon Binders for Use in Targeted Protein Degradation” (J Med Chem, 2023).
The source made the active and inactive calls. The rule behind the calls is not given here.

Columns and labels:
[1] = molecular target: Zinc finger protein Aiolos (Homo sapiens, UniProt Q9UKT9); test: Induction of ePL tagged Aiolos degradation in human DF15 cells incubated for 4 hrs by luminescence based assay; format: cell-based
[2] = molecular target: Protein cereblon/DNA damage-binding protein 1 (Homo sapiens, UniProt Q96SW2); test: Displacement of Cy5-labeled tracer CC0782985 from 6His-tagged CRBN (1 to 442 residues)/DDB1 (1 to 1140 residues) (unknown origin) incubated for 20 mins by TR-FRET assay; format: protein assay
[3] = molecular target: T1, Eukaryotic peptide chain release factor GTP-binding subunit ERF3A (Homo sapiens, UniProt P15170); test: Induction of ePL tagged GSPT1 degradation in human DF15 cells assessed as remaining activity incubated for 20 hrs by luminescence based assay relative to control; format: cell-based; parameters: concentration or dose not given beside the values
[4] = molecular target: T1, Eukaryotic peptide chain release factor GTP-binding subunit ERF3A; test: Induction of ePL tagged GSPT1 degradation in human DF15 cells incubated for 20 hrs by luminescence based assay; format: cell-based
[5] = molecular target: T1, Eukaryotic peptide chain release factor GTP-binding subunit ERF3A; test: Induction of ePL tagged GSPT1 degradation in human DF15 cells incubated for 20 hrs by luminescence based assay relative to control; format: cell-based
[6] = molecular target: T2, Androgen receptor (Homo sapiens) (UniProt P10275); test: Induction of androgen receptor degradation in human VCaP cells incubated for 24 hrs by ELISA; format: cell-based
T2 sequence (whole entry): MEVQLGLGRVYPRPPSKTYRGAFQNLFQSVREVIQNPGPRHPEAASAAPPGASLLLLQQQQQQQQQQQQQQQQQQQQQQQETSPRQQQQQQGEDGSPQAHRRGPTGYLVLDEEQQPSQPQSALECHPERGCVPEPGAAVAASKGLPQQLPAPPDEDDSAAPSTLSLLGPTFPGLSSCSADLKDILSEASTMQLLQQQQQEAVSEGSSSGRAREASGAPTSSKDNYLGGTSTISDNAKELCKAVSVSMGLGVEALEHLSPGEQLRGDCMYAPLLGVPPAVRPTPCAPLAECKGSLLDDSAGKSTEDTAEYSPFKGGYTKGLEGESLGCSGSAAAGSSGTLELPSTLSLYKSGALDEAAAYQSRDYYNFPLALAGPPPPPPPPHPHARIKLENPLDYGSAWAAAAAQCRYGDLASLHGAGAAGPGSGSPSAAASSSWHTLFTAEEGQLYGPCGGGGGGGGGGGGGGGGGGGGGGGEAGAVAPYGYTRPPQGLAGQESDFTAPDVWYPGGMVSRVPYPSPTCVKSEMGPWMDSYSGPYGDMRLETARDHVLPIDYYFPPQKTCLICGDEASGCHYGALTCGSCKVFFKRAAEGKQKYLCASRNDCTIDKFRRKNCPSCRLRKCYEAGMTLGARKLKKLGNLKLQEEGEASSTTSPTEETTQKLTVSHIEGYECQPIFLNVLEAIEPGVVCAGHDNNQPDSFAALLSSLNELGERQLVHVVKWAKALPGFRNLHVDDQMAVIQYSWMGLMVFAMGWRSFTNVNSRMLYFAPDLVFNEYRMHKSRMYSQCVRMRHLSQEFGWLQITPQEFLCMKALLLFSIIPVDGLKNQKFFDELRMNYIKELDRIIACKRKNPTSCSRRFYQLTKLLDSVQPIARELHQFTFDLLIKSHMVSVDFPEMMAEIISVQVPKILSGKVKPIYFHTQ

SMILES	EC50 [1]	IC50 [2]	Activity [3]	EC50 [4]	Activity [5]	Activity [6]
Cc1ccc(NC(=O)NCc2cccc(C(=O)NC3CCC(=O)NC3=O)c2)cc1Cl (stereo unspecified)	> 10 µM	3.8 µM	3.1%	0.021 µM		
Nc1cccc2c1cnn2C1CCC(=O)NC1=O (stereo unspecified)	> 10 µM	0.34 µM				
Cc1ccc(NC(=O)NCc2ccc(C3CCC(=O)NC3=O)cc2)cc1Cl (stereo unspecified)	> 10 µM	0.29 µM	73.4%	0.07 µM	26%	
Cn1nc(N2CCC(=O)NC2=O)c2ccc(N)cc21	> 10 µM	2.3 µM				
Cc1ccc(NC(=O)NCc2cccc(N3CCC(=O)NC3=O)c2)cc1Cl	> 10 µM	8.6 µM	95.2%	> 10 µM		
Nc1cccc2c1ncn2C1CCC(=O)NC1=O (stereo unspecified)	> 10 µM	0.81 µM				
O=C1CCC(NC(=O)c2ccccc2)C(=O)N1 (stereo unspecified)	> 10 µM	11.1 µM				
O=c1ccn(-c2ccccc2)c(=O)[nH]1	> 10 µM	> 100 µM				
Cn1nc(C2CCC(=O)NC2=O)c2ccc(N)cc21 (stereo unspecified)	> 10 µM	0.1 µM				
Nc1ccc2c(c1)ncn2C1CCC(=O)NC1=O (stereo unspecified)	0.312 µM	0.59 µM				
Nc1cccc(N2CCC(=O)NC2=O)c1	> 10 µM	11.7 µM				inactive
Nc1ccc(NC2CCC(=O)NC2=O)cc1 (stereo unspecified)	> 10 µM	12.4 µM				
O=C1CC[C@H](N2Cc3c(OCc4ccc(CN5CCOCC5)cc4)cccc3C2=O)C(=O)N1 [IBERDOMIDE]	0.001 µM		88.8%	> 10 µM		
Nc1ccc(N2CCC(=O)NC2=O)cc1	> 10 µM	23.6 µM				inactive
Nc1cccc(C2CCC(=O)NC2=O)c1 (stereo unspecified)	> 10 µM	2.3 µM				Active
Nc1cccc(C(=O)NC2CCC(=O)NC2=O)c1 (stereo unspecified)	> 10 µM	25.8 µM				
Cn1nc(C2CCC(=O)NC2=O)c2cccc(N)c21 (stereo unspecified)	> 10 µM	0.19 µM				
COc1ccc(C2CCC(=O)NC2=O)cc1 (stereo unspecified)	> 10 µM	2.2 µM				
Nc1cccc(N[C@H]2CCC(=O)NC2=O)c1	> 10 µM	1.4 µM				
Cn1nc(C2CCC(=O)NC2=O)c2ccccc21 (stereo unspecified)	> 10 µM	0.15 µM				
O=C1CCC(n2cnc3ccc(OCc4ccc(CN5CCOCC5)cc4)cc32)C(=O)N1 (stereo unspecified)	0.07 µM	0.28 µM	99%	> 10 µM		
Cc1ccc(NC(=O)NCc2ccc(N3CCC(=O)NC3=O)cc2)cc1Cl	> 10 µM	4.7 µM	93.8%	> 10 µM		

SMILES	EC50 [1]	IC50 [2]	Activity [3]	EC50 [4]	Activity [5]	Activity [6]
Nc1cccc(N[C@@H]2CCC(=O)NC2=O)c1	> 10 µM	2.9 µM				
O=C1CCN(c2ccc(OCc3ccc(CN4CCOCC4)cc3)cc2)C(=O)N1	> 10 µM	8 µM	97.1%	> 10 µM		
O=C1CCN(c2cccc(OCc3ccc(CN4CCOCC4)cc3)c2)C(=O)N1	> 10 µM	3.3 µM	94%	> 10 µM		
O=C1CCC(Nc2ccccc2)C(=O)N1 (stereo unspecified)	> 10 µM	5.6 µM				
Cc1ccc(NC(=O)NCc2cccc(C3CCC(=O)NC3=O)c2)cc1Cl (stereo unspecified)	> 10 µM	1.5 µM	92.8%	> 10 µM		
Cn1nc(N2CCC(=O)NC2=O)c2cccc(N)c21	> 10 µM	12.2 µM				
Cc1ccc(NC(=O)NCc2ccc(C(=O)NC3CCC(=O)NC3=O)cc2)cc1Cl (stereo unspecified)	> 10 µM	3.4 µM	33.7%	0.1 µM		
Cc1ccc(NC(=O)NCc2ccc3c(c2)CN(C2CCC(=O)NC2=O)C3=O)cc1Cl (stereo unspecified)	0.005 µM	0.03 µM	3.9%	0.0003 µM		
Nc1cccc2c1C(=O)N(C1CCC(=O)NC1=O)C2=O (stereo unspecified) [POMALIDOMIDE]	0.02 µM					
O=C1CCN(c2ccccc2)C(=O)N1	> 10 µM					
Cc1ccc(NC(=O)NCc2ccccc2C(=O)NC2CCC(=O)NC2=O)cc1Cl (stereo unspecified)	> 10 µM	10.3 µM	88.4%	> 10 µM		
Cn1nc(N2CCC(=O)NC2=O)c2ccccc21	> 10 µM	6.7 µM				
O=C1CCC(n2ncc3ccccc32)C(=O)N1 (stereo unspecified)	> 10 µM					
O=C1CCC(c2cccc(OCc3ccc(CN4CCOCC4)cc3)c2)C(=O)N1 (stereo unspecified)	> 10 µM	0.58 µM	96.6%	> 10 µM		
Nc1ccc(C2CCC(=O)NC2=O)cc1 (stereo unspecified)	> 10 µM	1.2 µM				Active
O=C1CCC(Oc2ccccc2)C(=O)N1 (stereo unspecified)	> 10 µM	7 µM				
COc1cccc(C2CCC(=O)NC2=O)c1 (stereo unspecified)	> 10 µM	1.7 µM				
Nc1ccc2ncn(C3CCC(=O)NC3=O)c2c1 (stereo unspecified)	0.142 µM	0.74 µM				
Nc1ccc(C(=O)NC2CCC(=O)NC2=O)cc1 (stereo unspecified)	0.607 µM	5.5 µM				
Nc1cccc(NC2CCC(=O)NC2=O)c1 (stereo unspecified)	> 10 µM	3.7 µM				
O=C1CCC(c2ccc(OCc3ccc(CN4CCOCC4)cc3)cc2)C(=O)N1 (stereo unspecified)	> 10 µM	1.9 µM	97.1%	> 10 µM		
O=C1CCC(c2ccccc2)C(=O)N1 (stereo unspecified)	> 10 µM					
